Measurements reported in the NIST ThermoML archive (doi:10.1021/je500881x).
Numbers after ± are expanded uncertainties.

Assay: refractive index (Na D-line) (dimensionless); wn = mass fraction of the nth substance listed
Conditions: 288.15 K, 101 kPa, Liquid, Standard Abbe refractometry

Row | Compound | refractive index (w1 = 0.4704) | refractive index (w1 = 0.5794)
1 | [Br-].[Na+] [sodium bromide] + O | 1.4196 ± 0.0004 | –
2 | [Br-].[Br-].[Ca+2] [calcium bromide] + O | – | 1.4892 ± 0.0004
